Species on record: Felis catus
Experiment: Compound was evaluated for positive inotropic activity in vitro on cat papillary muscle, expressed as the percent increase over base-line contractility at 1 x 10 e-4 M
Assay type: functional

In order of falling Increase:
1. CN(C)C1CCc2[nH]c3c(ccc4ncccc43)c2C1 (stereo not given)  80%
2. CN(C)C1CCc2c(c3ccc4ncccc4c3n2C)C1 (stereo not given)  69%
3. Nc1cc(-c2ccncc2)c[nH]c1=O [INAMRINONE]  50%
4. CN(C)C1CCc2[nH]c3cc(O)ccc3c2C1 (stereo not given)  50%
5. CN(C)C1CCc2[nH]c3c(ccc4[nH]ccc43)c2C1 (stereo not given)  15%
